US6809233B2, “DNA sequences for an amino acid transporter plasmids, bacteria, yeasts and plants containing a transporter and their use” (Hoechst Schering AgrEvo GmbH, priority 1992, dated 2004)

Molecular target: T1, amino acid transporter (PPP1-20, SEQ ID No. 1) in 22574d::PPP1-20 yeast strain (Arabidopsis thaliana, UniProt Q42400)
T1 construct: expressed in transfected cells; host or cells: Saccharomyces cerevisiae strain 22574d transformed with pFL61-ppp1-20
T1 sequence (Q42400 1-485): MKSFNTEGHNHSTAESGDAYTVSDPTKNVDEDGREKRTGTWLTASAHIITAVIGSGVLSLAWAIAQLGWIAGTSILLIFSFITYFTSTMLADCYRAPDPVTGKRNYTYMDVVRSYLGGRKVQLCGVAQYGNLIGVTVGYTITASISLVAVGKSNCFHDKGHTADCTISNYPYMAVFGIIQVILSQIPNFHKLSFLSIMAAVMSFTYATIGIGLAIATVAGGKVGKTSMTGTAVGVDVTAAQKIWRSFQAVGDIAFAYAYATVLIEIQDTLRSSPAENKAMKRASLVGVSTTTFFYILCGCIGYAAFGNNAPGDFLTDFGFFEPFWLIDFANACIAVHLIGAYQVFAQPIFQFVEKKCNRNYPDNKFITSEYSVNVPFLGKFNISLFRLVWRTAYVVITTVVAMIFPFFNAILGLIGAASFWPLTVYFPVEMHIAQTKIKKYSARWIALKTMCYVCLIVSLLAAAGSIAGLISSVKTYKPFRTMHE
Assay: Competition of 14C-L-proline uptake by excess of amino acids and analogues in 22574d::PPP1-20 yeast strain
Assay type: cell-based
Experimental: After centrifuging the culture, the cells are washed and taken up in 100 mm tris/HCl pH 4.5, 2 mM MgCl2 and 0.6M sorbitol. Around 100 μL of the suspension was added to a solution of 0.5 mM L-proline plus 1 μCi ^14C labeled L-proline in 100 μL of the same buffer. The uptake of the labeled amino acid was measured by the process described by Cirillo (1989, Meth Enzymol 174: 617-622). The uptake of the labeled amino acid was compared, on the one hand, in co-incubation with protein modifying substance diethyl pyrocarbonate which is an inhibitor of the amino acid transport in membrane vesicles from Beta vulgaris, and, on the other hand, in co-incubation with other protein modifying substances. A competition experiment in which the specificity of the transporter could be read off with various amino acids and analogues is shown in Table II for PPP1-20 and in FIG. 4 for AAP2. An analogous experiment in which a competition for histidine uptake in the line JT16::AAP2 was tested is described in Example 5.

O=C(O)[C@H]1NCC(O)C1O (some centres unmarked) [3,4-di-OH proline]
% remaining transport activity (1 x excess of competitor): 86%
% remaining transport activity (10 x excess of competitor): 49%
